Laboratory results as given in patent publication US11623944B2, “Paenibacillus strain, antifungal compounds, and methods for their use” (Bayer CropScience LP, priority 2015, dated 2023).
Where a SMILES comes first, the peptide text is derived from it. Bridges are numbered along the chain shown (N, C = ends). [ ]: non-standard residue; d: D form. The star is where a group is joined. ξ: configuration not given here. Pentadecanoyl(3ξ-OH,15-Gua) = N=C(N)NCCCCCCCCCCCCC(O)CC(=O)*; d(aThr) = C[C@@H](O)[C@@H](N)C(=O)O

Key:
[1] = tested on: Paenibacillus sp. strain NRRL B-50972; assay: Antibiotic sensitivity on sLB agar; format: cell-based; conditions: growth after 24, 48, 72 hours at 30° C.
[2] = tested on: Botrytis cinerea (BOTRCI); assay: In vitro antifungal 96-well plate assay (PRESTOBLUE); format: cell-based; conditions: Minimum Inhibitory Concentration for 80%
Experimental: The in vitro antifungal 96-well plate assay utilizes the resazurin-based cell viability reagent PRESTOBLUE® as an indicator for fungal growth. […] The assay was prepared with three agricultural-relevant fungal diseases: Alternaria solani ([…]), Colletotrichum lagenarium (COLLLA), and Botrytis cinerea (BOTRCI).

[3] = tested on: Alternaria solani (ALTESO); assay: as above; format: cell-based; conditions: for potency of asparagine analogue relative to its glutamine counterpart: Fusaricidin A vs Fusaricidin B, LiF08a vs LiF08b; for potency of asparagine analogue relative to its glutamine counterpart / relative potency of analogues differing at amino acid positions (2) and (3): FIG. 17; for relative potency of analogues differing at amino acid positions (2) and (3): Fusaricidin A, LiF05a, LiF06a, LiF08a compared; for Efficacy in % found: 0.25 mg/mL, alone
[4] = tested on: Colletotrichum lagenarium (COLLLA); assay: as above; format: cell-based; conditions: Minimum Inhibitory Concentration for 80%
[5] = tested on: Pseudomonas syringae (PSDMTM); assay: In vitro antibacterial 96-well plate assay (absorbance); conditions: NDR = no inhibition of bacterial growth at the highest concentrations tested
Experimental: (§1) The in vitro antibacterial 96-well plate assay uses absorbance as an indicator for bacterial growth. The assay measures the potency of a sample to inhibit bacterial growth by comparing the absorbance of the untreated wells to the sample wells. The last dilution/concentration that inhibits the growth of the bacteria is called the MIC (minimum inhibitory concentration) and this value can be used to compare the efficacy of different samples. The assay was evaluated with three agricultural-relevant bacterial diseases: Xanthomonas campestris (XANTAV), Pseudomonas syringae (PSDM™), and Erwinia carotovora (ERWICA).

[6] = tested on: Xanthomonas campestris (XANTAV); assay: as above
Experimental: as §1

[7] = tested on: Erwinia carotovora (ERWICA); assay: as above; conditions: NDR = no inhibition of bacterial growth at the highest concentrations tested
Experimental: as §1

O=C(N[C@H](CO)[C@H](O)c1ccc([N+](=O)[O-])cc1)C(Cl)Cl [Chloramphenicol]
Sensitive/Resistant ([1]; antibiotic 5 μg/mL): Resistant

CC[C@H]1OC(=O)[C@H](C)[C@@H](O[C@H]2C[C@@](C)(OC)[C@@H](O)[C@H](C)O2)[C@H](C)[C@@H](O[C@@H]2O[C@H](C)C[C@H](N(C)C)[C@H]2O)[C@](C)(O)C[C@@H](C)C(=O)[C@H](C)[C@@H](O)[C@]1(C)O [Erythromycin]
Sensitive/Resistant ([1]; antibiotic 5 μg/mL): Sensitive

CC(C)[C@@H]1NC(=O)[C@@H](C(C)C)NC(=O)[C@@H](NC(=O)CC(O)CCCCCCCCCCCCN=C(N)N)[C@@H](C)OC(=O)[C@@H](C)NC(=O)[C@@H](CC(N)=O)NC(=O)[C@@H]([C@@H](C)O)NC1=O (some centres unmarked) [Fusaricidin A] ({Pentadecanoyl(3ξ-OH,15-Gua)}-T[dV]V[d(aThr)][dN][dA]; ester 1-C)
MIC80 BOTRCI [2]: 1.5 ppm
potency of asparagine analogue relative to its glutamine counterpart [3]: over twice more potent
relative potency of analogues differing at amino acid positions (2) and (3) [3]: most potent
MIC80 ALTESO ([3]; Minimum Inhibitory Concentration for 80%): 1.6 ppm
Efficacy in % found ([3]; Table 23): 39.0%
Efficacy in % found ([3]; Table 24): 42.0%
MIC80 COLLLA [4]: 6.3 ppm
MIC80 PSDMTM [5]: NDR*
MIC80 XANTAV [6]: 24 ppm
MIC80 ERWICA [7]: 75 ppm

CC[C@@H](C)[C@H]1NC(=O)[C@@H](NC(=O)CC(O)CCCCCCCCCCCCN=C(N)N)[C@@H](C)OC(=O)[C@@H](C)NC(=O)[C@@H](CC(N)=O)NC(=O)[C@@H]([C@@H](C)O)NC(=O)[C@H]([C@@H](C)CC)NC1=O (some centres unmarked) [LiF08a] ({Pentadecanoyl(3ξ-OH,15-Gua)}-T[dI]I[d(aThr)][dN][dA]; ester 1-C)
potency of asparagine analogue relative to its glutamine counterpart [3]: over twice more potent
relative potency of analogues differing at amino acid positions (2) and (3) [3]: most potent

CCC[C@@H]1C[C@@H](C(=O)N[C@@H]([C@H]2O[C@H](SC)[C@H](O)[C@@H](O)[C@H]2O)[C@@H](C)O)N(C)C1 [Lincomycin]
Sensitive/Resistant ([1]; antibiotic 25 μg/mL): Resistant

CN[C@@H]1[C@H](O)[C@H](NC)[C@H]2O[C@@]3(O)C(=O)C[C@@H](C)O[C@H]3O[C@@H]2[C@H]1O [Spectinomycin]
Sensitive/Resistant ([1]; antibiotic 100-250 μg/mL): Resistant (growth, albeit reduced,

CN(C)[C@@H]1C(=O)C(C(N)=O)=C(O)[C@@]2(O)C(=O)C3=C(O)c4c(O)cccc4[C@@](C)(O)[C@H]3C[C@@H]12 [Tetracyclin]
Sensitive/Resistant ([1]; antibiotic 5 μg/mL): Sensitive
